For one assay, the system named is rat prostate. The following applies: in vitro and in vivo; Brooks et al. 1981; cited from earlier work.
Assay [1] deals with 5α-reductase. Conditions: Liang et al. 1981; cited from earlier work.
The subject of the next assay is ventral prostate. The following applies: rat; Brooks et al. 1981; cited from earlier work.
Assay [2] has as its target T1, 5α-reductase (Homo sapiens, UniProt P18405).
T1 construct: host or cells: DU 145 (human prostate carcinoma)
T1 sequence (P18405 1-259): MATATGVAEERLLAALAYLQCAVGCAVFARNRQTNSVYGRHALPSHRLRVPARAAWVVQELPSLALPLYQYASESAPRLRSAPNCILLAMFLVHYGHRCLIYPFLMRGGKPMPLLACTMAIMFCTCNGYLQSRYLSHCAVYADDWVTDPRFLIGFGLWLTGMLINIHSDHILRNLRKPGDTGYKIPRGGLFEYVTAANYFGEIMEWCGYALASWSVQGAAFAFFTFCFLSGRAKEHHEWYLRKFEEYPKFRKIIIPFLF
The experiment in a line: 5α-reductase inhibition in DU 145 cells (conversion of tritiated 4-androstenedione). The format is cell-based. On the procedure:
Except where otherwise indicated, 5α-reductase inhibition is measured by the following method. Plates having 24 dishes per unit are used. Into each dish were placed 100,000 cells from the human carcinoma metastatic prostatic cell line DU 145 (ATCC #HTB 81) in MEM medium containing 2% dextran charcoal-treated calf serum, 1% penicillin, 1% streptomycin and 1% non essential amino acids. After 24 h, the medium was removed and replaced by 2.5 ml of MEM medium containing 2% dextran charcoal-treated calf serum, 10 nM of tritiated […] and 1% of ethanol. Each dish had different concentrations of the 5α-reductase inhibitor being tested. The cells were incubated for 24 h at 37° C. under an atmosphere of 5% CO2 saturated with water. The extracellular medium was then removed, centrifuged at 1000 RPM for 10 min., and decanted in test tubes. To these test tubes was added 100 μl of ethanol containing 25 μg of androstanedione, 25 μg of 4-androstenedione, 25 μg of dihydrotestosterone and 25 μg of testosterone. The steroids were then extracted from the mixture by two extractions with 2 ml of diethyl ether. Phase separation was achieved by freezing of the aqueous phase. The organic phase was then evaporated, thus leaving asteroid residue which was dissolved in a few drops of methylene chloride and spotted on TLC plates (Whatman WH 4420222). After developing twice with a mixture of benzene-acetone (9:1), the spots were visualized by U.V. and gaseous iodine, cut, put into separate vials for each steroid and extracted for 15 min with 1 ml of ethanol. After addition of 10 ml of scintillation cocktail (NEN 989), the vials were shaked and counted.
The 5α-reductase activity is the sum of the transformation of 4-androstenedione to androstanedione and of the transformation of testosterone to dihydrotestosterone.

The subject of another assay is prostate. Conditions: men; Imperato-McGinley et al. 1989; cited from earlier work.
The test system of the next assay is type II 5α-reductase. Conditions: Andersson et al. 1991; cited from earlier work.
Another assay has as its system type I 5α-reductase. Conditions: Andersson et al. 1991; cited from earlier work.
Another assay relates to intraprostatic DHT. Conditions: men; Imperato-McGinley et al. 1989; cited from earlier work.

SMILES strings stand for the structures.

Take `CCN(CC)C(=O)[C@H]1CC[C@H]2[C@@H]3CC[C@H]4N(C)C(=O)CC[C@]4(C)[C@H]3CC[C@]12C` [4-MA, N,N-diethyl-4-methyl-3-oxo-4-aza-5α-androstane-17β-carboxamide]: the “inhibiting the formation of DHT from testosterone in rat prostate” value with rat prostate is “useful in inhibiting the formation of DHT from testosterone in rat prostate in vitro and in vivo”. Further, in the assay on 5α-reductase [1], the 5α-reductase inhibition type entry was “reversible inhibitor of 5α-reductase”. Besides, the “testosterone-induced increase in ventral prostate weight” value in the assay with ventral prostate was “reducing the testosterone-induced increase in ventral prostate weight”. In the case of `CN(C=O)[C@H]1CC[C@H]2[C@@H]3CC[C@H]4N(C)C(=O)CC[C@]4(C)[C@H]3CC[C@]12C` [EM 316, 17β-(N-methyl-N-formamido)-4-methyl-4-aza-5α-androstan-3-one], the Ki (as a rule, the dissociation constant of the complex between target and ligand, obtained from inhibition or displacement) on 5α-reductase [2] was 29 nM. On the same count and under the same terms, to `CN1C(=O)CC[C@]2(C)[C@H]3CC[C@]4(C)[C@@H](N(C=O)C5CC5)CC[C@H]4[C@@H]3CC[C@@H]12` [EM 336, 17β-(N-Cyclopropyl-N-formamido)-4-methyl-4-aza-5α-androstan-3-one] belongs 11.2 nM; to `CN1C(=O)CC[C@]2(C)[C@H]3CC[C@]4(C)[C@@H](N(C=O)C5CCCCC5)CC[C@H]4[C@@H]3CC[C@@H]12` [EM 337, 17β-(N-Cyclohexyl-N-formamido)-4-methyl-4-aza-5α-androstan-3-one], 11.9 nM. On the same count and under the same terms, the figure for `CCCCN(C=O)[C@H]1CC[C@H]2[C@@H]3CC[C@H]4N(C)C(=O)CC[C@]4(C)[C@H]3CC[C@]12C` [EM 347, 17β-(N-n-butyl-N-formamido)-4-methyl-4-aza-5α-androstan-3-one] is 2.6 nM; for `CNC(=O)N(C1CC1)[C@H]1CC[C@H]2[C@@H]3CC[C@H]4N(C)C(=O)CC[C@]4(C)[C@H]3CC[C@]12C` [EM 373, 17β-N-(1N-cyclopropyl-2N-methylurea)-4-methyl-4-aza-5α-androstan-3-one] it is 0.5 nM; for `CN1C(=O)CC[C@]2(C)[C@H]3CC[C@]4(C)[C@@H](N(C(=O)Nc5ccccc5)C5CC5)CC[C@H]4[C@@H]3CC[C@@H]12` [EM 374, 17β-N-(1N-cyclopropyl-2N-phenylurea)-4-methyl-4-aza-5α-androstan-3-one] it is 2.3 nM. Turning to `CCCNC(=O)N(C1CC1)[C@H]1CC[C@H]2[C@@H]3CC[C@H]4N(C)C(=O)CC[C@]4(C)[C@H]3CC[C@]12C` [EM 390], the inhibitory constant (Ki) on 5α-reductase [2] stood at 7.1 nM.

In turn, `CCNC(=O)N(C1CC1)[C@H]1CC[C@H]2[C@@H]3CC[C@H]4N(C)C(=O)CC[C@]4(C)[C@H]3CC[C@]12C` [EM 392, 17βN-(1N-cyclopropyl-2N-ethylurea)-4-methyl-4-aza-5α-androstan-3-one] yielded a Ki at 5α-reductase [2] of 13.5 nM. On the same count and under the same terms, to `CCCCNC(=O)N(C1CC1)[C@H]1CC[C@H]2[C@@H]3CC[C@H]4N(C)C(=O)CC[C@]4(C)[C@H]3CC[C@]12C` [EM 394] belongs 3.3 nM; to `CC(C)NC(=O)N(C1CC1)[C@H]1CC[C@H]2[C@@H]3CC[C@H]4N(C)C(=O)CC[C@]4(C)[C@H]3CC[C@]12C` [EM 396], 14 nM. On the same count and under the same terms, to `CN1C(=O)CC[C@]2(C)[C@H]3CC[C@]4(C)[C@@H](N(C(=O)NC5CCCCC5)C5CC5)CC[C@H]4[C@@H]3CC[C@@H]12` [EM 397] belongs 3.2 nM. The same measure, in the same setting: to `CCCCCN(C=O)[C@H]1CC[C@H]2[C@@H]3CC[C@H]4N(C)C(=O)CC[C@]4(C)[C@H]3CC[C@]12C` [EM 401, 17β(N-n-Amyl-N-formamido)-4-methyl-4-aza-5α-androstan-3-one] belongs 1.8 nM; to `CCCCCCN(C=O)[C@H]1CC[C@H]2[C@@H]3CC[C@H]4N(C)C(=O)CC[C@]4(C)[C@H]3CC[C@]12C` [EM 402, 17β-(N-n-Hexyl-N-formamido)-4-methyl-4-aza-5α-androstan-3-one], 7.2 nM; to `CC(C)CCN(C=O)[C@H]1CC[C@H]2[C@@H]3CC[C@H]4N(C)C(=O)CC[C@]4(C)[C@H]3CC[C@]12C` [EM 405, 17β-(N-iso-Amyl-N-formamido)-4-methyl-4-aza-5α-androstan-3-one], 2.2 nM. As for `CCC(CC)N(C=O)[C@H]1CC[C@H]2[C@@H]3CC[C@H]4N(C)C(=O)CC[C@]4(C)[C@H]3CC[C@]12C` [EM 407, 17β-(N-1-Ethylpropyl-N-formamido)-4-methyl-4-aza-5α-androstan-3-one], on 5α-reductase [2], the Ki worked out at 10.6 nM. With `CN(C(=O)Nc1ccccc1)[C@H]1CC[C@H]2[C@@H]3CC[C@H]4N(C)C(=O)CC[C@]4(C)[C@H]3CC[C@]12C` [EM 408, 17βN-(1N-methyl-2N-phenylurea)-4-methyl-4-aza-5α-androstan-3-one], affinity at 5α-reductase [2] was put at a Ki of 8.2 nM.

Compound `CC(C)CN(C=O)[C@H]1CC[C@H]2[C@@H]3CC[C@H]4N(C)C(=O)CC[C@]4(C)[C@H]3CC[C@]12C` [EM 422, 17β-(N-iso-Butyl-N-formamido)-4-methyl-4-aza-5-androstan-3-one] came in with a Ki at 5α-reductase [2] of 7.3 nM.

At 5α-reductase [2], `CCCN(C=O)[C@H]1CC[C@H]2[C@@H]3CC[C@H]4N(C)C(=O)CC[C@]4(C)[C@H]3CC[C@]12C` [EM 423, 17β-(N-n-propyl-N-formamido)-4-methyl-4-aza-5α-androstan-3-one] showed a Ki of 5.1 nM. `CCCCN(C(C)=O)[C@H]1CC[C@H]2[C@@H]3CC[C@H]4N(C)C(=O)CC[C@]4(C)[C@H]3CC[C@]12C` [EM 424, 17β-(N-n-butyl-N-acetamido)-4-methyl-4-aza-5α-androstan-3-one] registered a Ki on 5α-reductase [2] of 11.8 nM. On 5α-reductase [2], `CN1C(=O)CC[C@]2(C)[C@H]3CC[C@]4(C)[C@@H](N(C=O)Cc5ccccc5)CC[C@H]4[C@@H]3CC[C@@H]12` [EM 436, 17β-(N-Benzyl-N-formamido)-4-methyl-4-aza-5α-androstan-3-one] gave a Ki of 5.6 nM. With `CC(C)(C)NC(=O)[C@H]1CC[C@H]2[C@@H]3CC[C@H]4NC(=O)C=C[C@]4(C)[C@H]3CC[C@]12C` [MK-906], the “reduction in prostatic size” value in the assay on prostate is given as 25-30%. The “inhibition of the type II enzyme” value in the assay on type II 5α-reductase was “potent inhibitor of the type II enzyme”. Besides, in the assay on type I 5α-reductase, the “inhibition of the type I enzyme” value is listed as “weak inhibitor of the type I enzyme”. Moreover, the “intraprostatic concentration of DHT” value in the assay with intraprostatic DHT was “reduction in the intraprostatic concentration of DHT”.

The values are drawn from US5494914A, “Inhibitors for testosterone 5α-reductase activity” (Endorecherche, priority 1994, dated 1996).
